{"source": "patent US20080318783A1", "about": "“Use of abscisic acid seed treatment to enhance corn emergence after early planting” (priority 2007, published 2008)", "format_in_all_cases": "in vivo, Zea mays", "key": {"Corn seed (Hughes 5813)": {"test_system": "Corn seed (Hughes 5813)", "assay": "Seed treatment with ABA and stimulators of guanylate cyclase, cold damage during germination", "method": "Corn seed (Hughes 5813) was treated with sodium ABA salt as described under Example 3. ABA rates of 0 and 20 ug/seed were applied either alone or with compounds that are selective and potent activators of soluble guanylate cyclase in animal and plant cells. These agent are YC-1 (3-(5′-hydroxymethyl-2′-furyl)-1-benzylindazole) and BAY 41-2272 (5-cyclopropyl-2-[1-(2-fluoro-benzyl)-1H-pyrazolo[3,4-b]pyridine-3-yl]pyrimidin-4-ylamine)."}, "[1]": {"test_system": "Corn (\"Hughes High\" variety) seedlings", "assay": "Dip treatment of 2-day old corn seedlings, cold damage after 0° C. for 4 days (rolled towels)", "details": "for Adventitious root growth (%) / Destroyed roots (%) / Lethal shoot (%): ~30 s, 0° C. 4 days, scored 3 days later", "method": "Corn (“Hughes High” variety) was germinated in the dark in moist rolled towels at 25° C. for 2 days. Seedlings were selected that were undamaged, with a radicle of 1-2 cm and a coleoptile of 0.5 to 1 cm in length. Solutions in water with 5% ethanol were made with different concentrations of ABA and PBI-429. The seedlings were dipped in the solutions with gentle agitation for approximately 30 seconds and drained. The seedlings were placed on moist towels, gently rolled and held at 18° C. for 16 hours. Then the rolled towels were packed in ice for four days. After the chilling period, the rolled towels were blotted to remove excess water and transferred to a 25° C. chamber. Seedling damage was scored 3 days later. Lethal injury of the shoot consisted of either destruction of the mesocotyl or splitting or reduction of the coleoptile judged sufficient to prevent emergence of seedlings in the field (although this trial was conducted in towels). Seedlings with destroyed roots had no living primary or seminal roots. Seedlings with adventitious root growth from the mesocotyl were counted."}, "[2]": {"test_system": "\"Hughes High\" hybrid corn seed", "assay": "Seed treatment with ABA, cold damage (ice, 4 days) during germination in moist towels", "details": "48 h at 25° C., then ice 4 days", "method": "ABA was applied to corn seed at 0, 1, 5, 25 and 125 g/cwt (seed weight basis). The ABA was first converted to the sodium salt to render it soluble before making up the experimental seed treatment slurries. The treatments were made up in 3 ml samples of an aqueous slurry. All of the seed treatment slurry samples contained CF-Clear film-forming agent and Colorcoat Red (Becker Underwood), each at loz/cwt, and 0.167 oz/cwt Maxim XL fungicide (Syngenta). The slurry application volume was 20 oz/cwt (cwt=100 lbs of seed). One hundred gram samples of “Hughes High” hybrid corn seed were treated with the experimental slurries using a Hege 11 seed treater with a six-inch bowl.\nThree replications of 50 seeds each were planted were planted in moist towels and germinated in the dark at 25° C. for 48 hours. The rolled towels were then packed in ice for 4 days. After the cold period the towels were blotted and germination continued until the seedlings were large enough so that each seedling could be scored. In the case of the 125 g rate, this took 2 weeks. Seedling organs were scored independently for damage to the primary root, seminal roots, mesocotyl, coleoptile and the scutellar node."}, "Corn seed (Hughes 1883) [3]": {"test_system": "Corn seed (Hughes 1883)", "assay": "Soil test, standard delayed chilling (severe chilling after 2 days germination)", "details": "for Strong seedlings (%) / Viable seedlings (%): soil, 2 days germination, then 1° C. 4 days", "method": "(§1) Corn seed (Hughes 1883) was treated with ABA ammonium salt as described under Example 2. ABA rates of 0, 5, 10 and 25 g/cwt were applied.\n(§2) The seed was planted in plastic boxes containing lkg of typical agricultural silt loam. Fifty seeds were planted 3 cm deep in each plastic box, and the soil in the box was adjusted to 23% soil moisture (wet-weight basis). Two replications of the experiment were performed. Two kinds of cold tolerance assays were conducted, “standard delayed chilling” and “chilling at spiking.” The boxes for the standard delayed chilling were […] and transferred to 1° C. for four days. Boxes for the “chilling at spiking” treatment were allowed to germinate at 25° C. until the coleoptiles were first observed emerging from the soil. This common point of development varied from 3 to 6 days depending upon the dose of ABA. Then these boxes too were transferred to the 1° C. chamber for four days.\n(§3) After the cold treatment the boxes were moved to the 25° C. chamber for one week. The soil was washed from the seedlings and each seedling scored for damage as described under Example 2. “Viable seedlings” were seedlings capable of surviving under typical field conditions."}, "Corn seed (Hughes 1883) [4]": {"test_system": "Corn seed (Hughes 1883)", "assay": "Soil test, chilling at spiking (chilling at point of initial emergence)", "details": "for Strong seedlings (%) / Viable seedlings (%): soil, 1° C. 4 days applied at initial emergence (spiking)", "method": "as §1, §2, §3"}, "[5]": {"details": "Bay 41-2272 1 μg/seed, ABA 0 μg/seed"}, "[6]": {"details": "Bay 41-2272 10 μg/seed, ABA 0 μg/seed"}, "[7]": {"details": "ABA (sodium salt) seed treatment 1 g/cwt"}, "[8]": {"details": "ABA (sodium salt) seed treatment 5 g/cwt"}, "[9]": {"details": "ABA (sodium salt) seed treatment 25 g/cwt"}, "[10]": {"details": "ABA (sodium salt) seed treatment 125 g/cwt"}, "[11]": {"details": "ABA ammonium salt seed treatment 5 g/cwt"}, "[12]": {"details": "ABA ammonium salt seed treatment 10 g/cwt"}, "[13]": {"details": "ABA ammonium salt seed treatment 25 g/cwt"}, "[14]": {"details": "ABA (sodium salt) 20 μg/seed alone, sGC activator 0 μg/seed"}}, "data": [{"molecule": "Nc1nc(-c2nn(Cc3ccccc3F)c3ncccc23)ncc1C1CC1", "note": "[Bay 41-2272, 5-cyclopropyl-2-[1-(2-fluoro-benzyl)-1H-pyrazolo[3,4-b]pyridine-3-yl]pyrimidin-4-ylamine]", "values": [{"measurement": "Percent Strong Seedlings", "setting": "Corn seed (Hughes 5813); [5]", "value": 1, "unit": "%"}, {"measurement": "Percent Viable Seedlings", "setting": "Corn seed (Hughes 5813); [5]", "value": 65, "unit": "%"}, {"measurement": "Percent Strong Seedlings", "setting": "Corn seed (Hughes 5813); [6]", "value": 0, "unit": "%"}, {"measurement": "Percent Viable Seedlings", "setting": "Corn seed (Hughes 5813); [6]", "value": 64, "unit": "%"}]}, {"molecule": "OCc1ccc(-c2nn(Cc3ccccc3)c3ccccc23)o1", "note": "[YC-1, 3-(5′-hydroxymethyl-2′-furyl)-1-benzylindazole]", "values": [{"measurement": "Percent Strong Seedlings", "setting": "Corn seed (Hughes 5813); YC-1 1 μg/seed, ABA 0 μg/seed", "value": 0, "unit": "%"}, {"measurement": "Percent Viable Seedlings", "setting": "Corn seed (Hughes 5813); YC-1 1 μg/seed, ABA 0 μg/seed", "value": 44, "unit": "%"}, {"measurement": "Percent Strong Seedlings", "setting": "Corn seed (Hughes 5813); YC-1 10 μg/seed, ABA 0 μg/seed", "value": 4, "unit": "%"}, {"measurement": "Percent Viable Seedlings", "setting": "Corn seed (Hughes 5813); YC-1 10 μg/seed, ABA 0 μg/seed", "value": 46, "unit": "%"}]}, {"molecule": "S-(+)-abscisic acid [ABA]", "values": [{"measurement": "Adventitious root growth (%)", "setting": "[1]; ABA dip 10 ppm", "value": 7, "unit": "%"}, {"measurement": "Destroyed roots (%)", "setting": "[1]; ABA dip 10 ppm", "value": 86, "unit": "%"}, {"measurement": "Lethal shoot (%)", "setting": "[1]; ABA dip 10 ppm", "value": 62, "unit": "%"}, {"measurement": "Adventitious root growth (%)", "setting": "[1]; ABA dip 100 ppm", "value": 20, "unit": "%"}, {"measurement": "Destroyed roots (%)", "setting": "[1]; ABA dip 100 ppm", "value": 84, "unit": "%"}, {"measurement": "Lethal shoot (%)", "setting": "[1]; ABA dip 100 ppm", "value": 47, "unit": "%"}, {"measurement": "Adventitious root growth (%)", "setting": "[1]; ABA dip 1000 ppm", "value": 89, "unit": "%"}, {"measurement": "Destroyed roots (%)", "setting": "[1]; ABA dip 1000 ppm", "value": 48, "unit": "%"}, {"measurement": "Lethal shoot (%)", "setting": "[1]; ABA dip 1000 ppm", "value": 11, "unit": "%"}, {"measurement": "Protection of seedlings from cold injury (in words)", "setting": "[1]; applied to the seedling prior to cold stress", "value": "can provide protection from injury, and stimulate adventitious root growth"}, {"measurement": "Seedlings with lethal root injury (%)", "setting": "[2]; [7]", "value": 23.3, "unit": "%"}, {"measurement": "Seedlings with lethal shoot injury (%)", "setting": "[2]; [7]", "value": 19.3, "unit": "%"}, {"measurement": "Strong seedlings (%)", "setting": "[2]; [7]", "value": 18.0, "unit": "%"}, {"measurement": "Seedlings with lethal root injury (%)", "setting": "[2]; [8]", "value": 0.7, "unit": "%"}, {"measurement": "Seedlings with lethal shoot injury (%)", "setting": "[2]; [8]", "value": 8.0, "unit": "%"}, {"measurement": "Strong seedlings (%)", "setting": "[2]; [8]", "value": 88.7, "unit": "%"}, {"measurement": "Seedlings with lethal root injury (%)", "setting": "[2]; [9]", "value": 0.0, "unit": "%"}, {"measurement": "Seedlings with lethal shoot injury (%)", "setting": "[2]; [9]", "value": 15.5, "unit": "%"}, {"measurement": "Strong seedlings (%)", "setting": "[2]; [9]", "value": 95.3, "unit": "%"}, {"measurement": "Seedlings with lethal root injury (%)", "setting": "[2]; [10]", "value": 0.7, "unit": "%"}, {"measurement": "Seedlings with lethal shoot injury (%)", "setting": "[2]; [10]", "value": 11.4, "unit": "%"}, {"measurement": "Strong seedlings (%)", "setting": "[2]; [10]", "value": 81.3, "unit": "%"}, {"measurement": "Strong seedlings (%)", "setting": "Corn seed (Hughes 1883) [3]; [11]", "value": 53, "unit": "%"}, {"measurement": "Viable seedlings (%)", "setting": "Corn seed (Hughes 1883) [3]; [11]", "value": 99.5, "unit": "%"}, {"measurement": "Strong seedlings (%)", "setting": "Corn seed (Hughes 1883) [3]; [12]", "value": 96, "unit": "%"}, {"measurement": "Viable seedlings (%)", "setting": "Corn seed (Hughes 1883) [3]; [12]", "value": 99.5, "unit": "%"}, {"measurement": "Strong seedlings (%)", "setting": "Corn seed (Hughes 1883) [3]; [13]", "value": 100, "unit": "%"}, {"measurement": "Viable seedlings (%)", "setting": "Corn seed (Hughes 1883) [3]; [13]", "value": 100, "unit": "%"}, {"measurement": "Protection from cold in field soil (in words)", "setting": "Corn seed (Hughes 1883) [3]; delivered as a seed treatment", "value": "protection of germinating seeds and young seedlings in field soil"}, {"measurement": "Strong seedlings (%)", "setting": "Corn seed (Hughes 1883) [4]; [11]", "value": 0, "unit": "%"}, {"measurement": "Viable seedlings (%)", "setting": "Corn seed (Hughes 1883) [4]; [11]", "value": 5, "unit": "%"}, {"measurement": "Strong seedlings (%)", "setting": "Corn seed (Hughes 1883) [4]; [12]", "value": 18, "unit": "%"}, {"measurement": "Viable seedlings (%)", "setting": "Corn seed (Hughes 1883) [4]; [12]", "value": 62, "unit": "%"}, {"measurement": "Strong seedlings (%)", "setting": "Corn seed (Hughes 1883) [4]; [13]", "value": 10, "unit": "%"}, {"measurement": "Viable seedlings (%)", "setting": "Corn seed (Hughes 1883) [4]; [13]", "value": 23, "unit": "%"}, {"measurement": "Protection of seedlings from cold damage (in words)", "setting": "Corn seed (Hughes 1883) [4]; seed treatment, chilling at spiking", "value": "results not only from delay of germination, but from induction of cold tolerance in the tissue"}, {"measurement": "Percent Strong Seedlings", "setting": "Corn seed (Hughes 5813); [14]", "value": 67, "unit": "%"}, {"measurement": "Percent Viable Seedlings", "setting": "Corn seed (Hughes 5813); [14]", "value": 100, "unit": "%"}]}]}
